According to US6555547B1, “Method for treating a patient with neoplasia by treatment with a vinca alkaloid derivative” (Cell Pathways, Inc., priority 2000, dated 2003):
Entries after “also recorded” stand apart in the source; their conditions may differ.

What was measured:
[1] = system: PKG activity in HCT116 colon cancer cells; assay: PKG assay on lysates of drug-treated HCT116 cells; type: cell-based
Description: To test the effect of cGMP-specific PDE inhibition on neoplasia containing the β-catenin mutation, HCT116 colon cancer cells were employed. HCT116 is known to contain the β-catenin mutation, but is known not to contain the APC mutation.
The same procedure is used to grow the HCT116 cells as is used in the SW480 procedure described above. In this experiment, only exisulind and controls were used.

[2] = system: β-catenin and PKG in SW480 cells; assay: Western blot of β-catenin and PKG in SW480 cells; type: cell-based, human; settings: SW480, 48 hours
Description: SW480 cells treated with exisulind as described previously are harvested from the microfuge tubes by rinsing once with ice-cold PBS. The cells are lysed by modified RIPA buffer for 15 minutes with agitation. The cell lysate is spun down in a cold room. The supernatants are transferred to fresh microcentrifuge tubes immediately after spinning. BioRad DC Protein Assay (Temecula, Calif.) is performed to determine the protein concentrations in samples. The samples are normalized for protein concentration, as described above.
50 μg of each sample is loaded onto a 10% SDS gel. SDS-PAGE is performed, and the proteins then are transferred to a nitrocellulose membrane. The blotted nitrocellulose membrane is blocked in freshly prepared TBST containing 5% nonfat dry milk for one hour at room temperature with constant agitation.
A goat-anti-PKG primary antibody is diluted to the recommended concentration/dilution in fresh TBST/5% nonfat dry milk. The nitrocellulose membrane is placed in the primary antibody solution and incubated one hour at room temperature with agitation. The nitrocellulose membrane is washed three times for ten minutes each with TBST. […]
This observation was made by culturing SW480 cells with either 200, 400 or 600 μM exisulind or vehicle (0.1% DMSO). […] Immuno-reactive protein can be detected by Western blot. […]

[3] = target: T1, cGMP binding sites of GST-cGB-PDE5 fusion protein (Homo sapiens, UniProt O76074); assay: cGMP binding assay; settings: 3H-cGMP 2 μM
T1 construct: made in house; host or cells: E. coli BL21 (DE3)
T1 sequence (O76074 46-539 limits assumed): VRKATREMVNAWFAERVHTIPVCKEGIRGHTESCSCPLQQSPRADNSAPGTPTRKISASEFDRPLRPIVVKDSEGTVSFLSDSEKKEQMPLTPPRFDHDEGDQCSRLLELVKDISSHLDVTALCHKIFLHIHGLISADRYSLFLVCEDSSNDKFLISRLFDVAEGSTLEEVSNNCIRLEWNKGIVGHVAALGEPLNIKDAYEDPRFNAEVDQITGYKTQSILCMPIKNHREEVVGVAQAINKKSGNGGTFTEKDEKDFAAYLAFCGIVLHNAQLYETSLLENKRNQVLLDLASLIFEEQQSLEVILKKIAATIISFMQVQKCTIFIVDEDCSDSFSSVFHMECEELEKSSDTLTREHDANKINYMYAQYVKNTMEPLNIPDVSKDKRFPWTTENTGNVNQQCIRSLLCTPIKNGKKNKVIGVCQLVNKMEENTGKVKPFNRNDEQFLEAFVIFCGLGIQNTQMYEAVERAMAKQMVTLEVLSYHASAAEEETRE

[4] = system: Calu-6 adenocarcinoma cell line; assay: Cell growth, alone and in combination with vinca alkaloid; type: cell-based, human; settings: for Lower concentration required on continuous exposure than 1-hour exposure for same effect: FIGS. 28-29, 32-33; for Effect when combined with vinca alkaloid: both cell lines (Calu-6, H460), 1-hour and continuous exposures
Description: (§1) Exisulind and Compound I were analyzed using two human lung cancer cell lines; H460, a large cell carcinoma with a doubling time of 16 hours, and Calu-6, an adenocarcinoma with a doubling time of 21 hours. Exisulind and Compound I were analyzed alone and in combination with the vinca alkaloid, Navelbine™ vinorelbine. The cytotoxic agents were administered for 1 hour, while exisulind and Compound I were administered for either 1 hour or given as a continuous exposure.
(§2) Cells were plated on day 0 and allowed to attach. On day 1, the cells were exposed to one of the cytotoxic agents dissolved in media pre-warmed to 37° C. and incubated at 37° C. for 1 hour. The cells were then washed twice and re-fed pre-warned media with or without either exisulind or Compound I and incubated for one hour at 37° C. After the one-hour incubation, the cells were washed twice, re-fed, and returned to the incubator; the continuous exposure cultures were not washed and re-fed. Appropriate controls were included for each condition. […] All data points were done in triplicate and the mean graphed as a percent of control growth.
(§3) Exisulind and Compound I were first dissolved in DMSO and brought to the desired concentrations by slowly adding warm media to the drug-DMSO solution to prevent precipitation.

[5] = Side effects of exisulind in patients; type: in vivo
Description: This effect is reversible, and liver enzymes return to normal levels when the administered dose of exisulind returns to the traditionally recommended level or when treatment is discontinued. The most serious side effects of vinca alkaloid derivatives, on the other hand, are myelosuppressions.

[6] = Acute toxicity study in rats; type: in vivo
[7] = Toxicity study in dogs (capsules); type: in vivo
[8] = Seven-day dose-range finding study in rats; type: in vivo
[9] = system: LNCaP prostate tumor cell line; assay: Histone-associated DNA fragmentation in prostate tumor cells; type: cell-based; settings: 50 μM, up to 4 days, free base
Description: The androgen-sensitive prostate tumor cell line, LNCaP (from ATCC (Rockville, Md.)) was propagated under standard conditions using […] medium containing 5% fetal calve serum and 2 mM glutamine. Primary prostate epithelial cell cultures (PrEC) derived from normal prostate (from Clonetics Inc. (San Diego, Calif.)) were grown under the same conditions as the tumor cell line except a serum-free medium optimized for the growth of such cultures was used (Clonetics Inc). For the experiments, LNCaP or PrEC cells were seeded in 96 well plates at a density of 10,000 cells per well. […] After various drug treatment times (4, 24, 48, 72, or 99 hours) the cells were lysed and processed for measurement of histone-associated DNA as an indicator of apoptotic cell death (see, Piazza et al., Cancer Research 57: 2452-2459, 1997).

[10] = system: PrEC primary prostate epithelial cell cultures; assay: Histone-associated DNA fragmentation in normal prostate epithelial cells; type: cell-based; settings: 50 μM, up to 4 days
Description: The androgen-sensitive prostate tumor cell line, LNCaP (from ATCC (Rockville, Md.)) was propagated under standard conditions using […] medium containing 5% fetal calve serum and 2 mM glutamine. Primary prostate epithelial cell cultures (PrEC) derived from normal prostate (from Clonetics Inc. (San Diego, Calif.)) were grown under the same conditions as the tumor cell line except a serum-free medium optimized for the growth of such cultures was used (Clonetics Inc). For the experiments, LNCaP or PrEC cells were seeded in 96 well plates at a density of 10,000 cells per well. After 24 hours, the cells were treated with either vehicle (0.1% DMSO) or 50 μM Compound I (free base) solubilized in DMSO. After various drug treatment times (4, 24, 48, 72, or 99 hours) the cells were lysed and processed for measurement of histone-associated DNA as an indicator of apoptotic cell death (see, Piazza et al., Cancer Research 57: 2452-2459, 1997).

[11] = system: H460 large cell carcinoma cell line; assay: Cell growth, alone and in combination with vinca alkaloid; type: cell-based, human
Description: as §1, §2, §3

[12] = rat, in vivo, 2000 mg/kg/day
[13] = in vivo
[14] = system: Peak B from SW480, HTB-26, and LnCAP; assay: Peak B cGMP PDE activity from SW480, HTB-26 and LnCAP (FPLC); type: biochemical; settings: 100 nM; Peak B from SW480, HTB-26, LnCAP
Description: The novel Peak B was also isolated from two other neoplastic cell lines, a breast cancer cell line, HTB-26, and a prostate cancer cell line, LnCAP, by a procedure similar to the one above used to isolate it from SW480. The protocol was modified in several respects. To provide even greater reproducibility to allow comparison of different cell lines, a Pharmacia AKTA FPLC was used to control sample loading and elution on an 18 mL DEAE TrisAcryl M column. SW840 was run by this same procedure multiple times to provide a reference of Peak B. 200-400 million cells of SW480 were used for the profiles. 70 million cells of LnCAP were used for a profile (see FIGS. 22 and 23), and in a separate experiment 32 million cells of HTB-26 were used for a profile (see FIGS. 20 and 21). After re-suspending cells in homogenization buffer, samples were manually homogenized. FPLC buffer A was 8 mM TRIS-acetate, 5 mM Mg acetate, 0.1 mM EDTA, pH 7.5 and buffer B was 8 mM TRIS-acetate, 5 mM Mg acetate, 0.1 mM EDTA, 1 M Na acetate, pH 7.5. Supernatants were loaded onto the column at 1 mL per minute, followed by a wash with 60 mL buffer A at 1 mL per minute. A gradient was run from 0-15% buffer B in 60 mL, 15-50% buffer B in 60 mL, and 50-100% buffer B in 16 mL. During the gradient 1.5 mL fractions were collected.

CC1=C(CC(=O)O)c2cc(F)ccc2/C1=C\c1ccc(S(C)(=O)=O)cc1 [Exisulind, 5-fluoro-2-methyl-1-(p-methylsulfonylbenzylidene)-3-indenylacetic acid]
PKG activation relative to control [1]: yielded PKG that was phosphorylated to a greater extent than the corresponding controls
β-catenin and PKG levels by Western blot [2]: causes the drop of β-catenin and the increase of PKG
Competition with cGMP for binding of GST-cGB-PDE5 [3]: do not bind to the cGMP binding sites of PDE5
Lower concentration required on continuous exposure than 1-hour exposure for same effect [4]: ~10 fold
activity at 400 µg/mL ([4]; Homo sapiens, Calu-6, 1 h, Calu-6, 1-hour exposure, 400 μg/ml, read-out: % of control growth): 54%
Effect when combined with vinca alkaloid [4]: additive cytotoxic effect
Side effects at recommended dose ([5]; 300-600 mg/day): no significant side effects
Side effects above recommended dose ([5]; doses higher than the recommended therapeutic levels, reversible): can lead to elevated levels of liver enzymes

CC1=C(CC(=O)NCc2ccccc2)c2cc(F)ccc2/C1=C\c1ccncc1.Cl [Compound I, (Z)-5-fluoro-2-methyl-(4-pyridylidene)-3-(N-benzyl)indenylacetamide hydrochloride]
intraperitoneal LD50 [6]: greater than 1000 mg/kg
oral LD50 [6]: > 4000 mg/kg
Acute toxicity, single intraperitoneal dose ([6]; intraperitoneal, 1000 mg/kg): reduced body weight gain, with mesenteric adhesions seen in some animals
Acute toxicity, single oral dose ([6]; oral, 4000 mg/kg): body weight gains were slightly reduced
Acute toxicity, single oral doses ([6]; oral, up to and including 2000 mg/kg): no observable signs of toxicity
oral LD50 [7]: greater than 1000 mg/kg
Toxicity, single dose in capsules ([7]; 1000 mg/kg): no signs of toxicity
Drug-related effects, single dose and seven consecutive doses ([7]; 1000 mg/kg/day): At no time in either dosing phase were any obvious signs of drug-related effects observed
Seven-day toxicity findings ([8]; 50 mg/kg/day): no observable signs of toxicity
Seven-day toxicity findings ([8]; 500 mg/kg/day): treatment-related effects were limited to an increase in absolute and relative liver weights in female rats
Seven-day toxicity findings ([8]; 2000 mg/kg/day): labored breathing and/or abnormal respiratory sounds, decreased weights gains and food consumption in male rats, and increased liver weights in female rats
Seven-day hematology, blood chemistry, microscopic pathology ([8]; any dose level): No hematological or blood chemistry changes nor any microscopic pathology changes
Histone-associated fragmented DNA [9]: A significant increase in fragmented DNA was detected after 24 hours of treatment; also recorded: time-dependent increase in the amount of histone-associated fragmented DNA
DNA fragmentation [10]: did not affect DNA fragmentation for up to 4 days of treatment
Strength in inhibiting cell growth relative to exisulind ([4]; Calu-6): 80-100 fold
% of control growth ([4]; Calu-6, 1-hour exposure, 5 mcg/ml): 47%
Lower concentration required on continuous exposure than 1-hour exposure for same effect [4]: 25 fold
Effect when combined with vinca alkaloid [4]: additive cytotoxic effect
Strength in inhibiting cell growth relative to exisulind [11]: 80-100 fold
28-day histopathological evaluation [12]: traces of follicular cell hypertrophy, increased numbers of mitotic figures (suggestive of possible cell proliferation) in the thyroid gland and mild centrilobular hypertrophy in the liver
28-day liver weights [12]: statistically significant increase in liver weights
28-day thyroid weights [12]: statistically significant increases in thyroid weights
Safety [13]: safe in animal studies and in a single, escalating dose human study

O=C(O)C1CCN(c2nc(NCc3ccc4c(c3)OCO4)c3cc(Cl)ccc3n2)CC1 [Compound E4021]
Sensitivity of Peak B cGMP PDE activity [14]: resistant
Competition with cGMP for binding of GST-cGB-PDE5 [3]: do not bind to the cGMP binding sites of PDE5
